Data reported in patent US8729097B2, “Quinoline compounds as inhibitors of angiogenesis, human methionine aminopeptidase, and SIRT1, and methods of treating disorders” (The Johns Hopkins University, priority 2008, dated 2014).
Read-outs that look alike come from different tables or passages of the source.

What was measured:
[1] = target: T1, hMetAP2 (Homo sapiens, UniProt P50579); experiment: MetAP enzymatic assay, hMetAP2; assay type: biochemical
T1 construct: made in house

[2] = target: T2, hMetAP1 (Homo sapiens, UniProt P53582); experiment: MetAP enzymatic assay, hMetAP1; assay type: biochemical
T2 construct: made in house

[3] = tested on: HUVEC; experiment: HUVEC proliferation, [3H]-thymidine incorporation assay; assay type: cell-based, human
Protocol: (§1) HCC1954 cells were grown in RPMI1640 containing 10% FBS. HUVEC were grown using the EGM-2 bullet kit (Cambrex) as per manufacturer's instructions. The cells were maintained in a humidified incubator adjusted to 5% CO2. For drug screening, 10 mM stock solutions of Johns Hopkins Drug Library were arrayed in 96-well plates and screened at a final concentration of 10 μM. The cell growth was determined using a [^3H]-thymidine incorporation assay. Cells (typically 5,000 cells/well) were seeded in 96-well plates containing 0.2 ml of growth media and allowed to adhere for 24 h. The cells were then treated with drugs for 24 h. Cells were pulsed with 1 μCi [^3H]-thymidine (MP Biomedicals, 6.7 Ci mmol^−1) for 8 h and harvested, upon trypsin treatment, onto glass fiber filters (Wallac, Turku, Finland), from which ^3H counts were determined using a Perkin Elmer MicroBeta plate reader.

[4] = tested on: HFF; experiment: HFF proliferation (selectivity); assay type: cell-based
[5] = tested on: breast cancer cells as well as human umbilical vein endothelial cells (HUVECs); experiment: Cell proliferation assay, breast cancer cells and HUVECs; assay type: cell-based
Protocol: Cell proliferation assay was performed using several different kinds of breast cancer cells as well as human umbilical vein endothelial cells (HUVECs). […].
as §1

[6] = tested on: Saccharomyces cerevisiae strain BY4743; experiment: Yeast growth assay (wild type, map1Δ, map2Δ); assay type: cell-based; conditions: drug on paper disc
Text: Saccharomyces cerevisiae strain BY4743 (MATa/α his3Δ1/his3Δ1 leu2Δ0/leu2Δ0 lys2Δ0/LYS2) and its isogenic haploid derivatives for MetAP1 (map1Δ) and MetAP2 (map2Δ) deletion mutants were used for yeast growth assays. Drugs dissolved in DMSO were spotted onto sterile filter disks and dried before experiments. Exponentially growing yeast strains were mixed with top agar and plated on YPD (1% yeast extract/2% peptone/2% glucose) plates. The filter disks were then placed on the YPD plates containing yeasts and the incubation was continued for 48 h at 30° C.

[7] = tested on: N-terminal methionine processing of 14-3-3γ by hMetAP2; experiment: N-terminal methionine processing of 14-3-3γ in HUVEC (Western blot); assay type: cell-based, human; conditions: 10 nM
Protocol: 14-3-3γ is known as a substrate of eukaryotic MetAPs and the inhibition of either isotype of MetAPs was reported to increase the N-terminal methionyl form of the protein.
Cells were lysed by adding 1 volume of 2× Laemmli buffer and were then boiled for 5 min. The samples were separated by SDS-PAGE and transferred to nitrocellulose membrane (Bio-Rad).

[8] = tested on: p53 and Rb pathways in HUVECs; experiment: Western blot of p53, p21 and Rb in HUVEC; assay type: cell-based, human
Protocol: (§2) Cells were lysed by adding 1 volume of 2× Laemmli buffer and were then boiled for 5 min. The samples were separated by SDS-PAGE and transferred to nitrocellulose membrane (Bio-Rad). Proteins were detected using primary antibodies for p53 (Santa Cruz), met-14-3-3γ (Novus), p21 (Santa Cruz), Rb (Santa Cruz), MetAP2 (Hu, X. et al (2006) Proc. Natl. Acad. Sci. U.S.A. 103, 18148-18153), SirT1 (Santa Cruz), acetyl-p53-K382 (Abeam), acetyl-tubulin (Sigma), histone-H3 (Santa Cruz), acetyl-H3 (Santa Cruz) and α-tubulin (TU-02, Santa Cruz) followed by the incubation with horseradish peroxidase (HRP)-conjugated anti-mouse or anti-rabbit antibodies (Santa Cruz) and enhanced chemiluminescence (ECL, Amersham).

[9] = tested on: HUVEC; experiment: Senescence associated-β-galactosidase (SA-β-gal) staining in HUVEC; assay type: cell-based, human
Protocol: Cells in 6-well plates were washed with PBS and fixed with 3% paraformaldehyde. After washing with PBS, the cells were incubated for 24 h at 37° C. (without CO2, protected from light) in freshly prepared SA-β-gal staining solution containing 1 mg/ml 5-bromo-4-chloro-3-indolyl β-D-galactopyranoside (X-gal), 5 mM potassium ferrocyanide, 5 mM potassium ferricyanide, 150 mM NaCl, 2 mM MgCl2 and 40 mM citric acid, titrated with NaH2PO4 to pH 6.0. SA-β-gal solution was then removed and the cells were washed with PBS. The stained cells were observed under a microscope.

[10] = tested on: HUVEC; experiment: Endothelial cell tube formation assay; assay type: cell-based, human; conditions: Matrigel; EX527 1 μM, TNP470 10 nM
Protocol: HUVEC were seeded on a 96-well plate (2×10^4 cells/well) coated with Matrigel. The cells were then incubated for 16˜18 h in a humidified 5% CO2 incubator at 37° C. The cells were washed carefully with PBS once and Calcein-AM solution in PBS was then added to a final concentration of 2 μM. After incubation for an additional 30 min, the cells were washed carefully with PBS and observed under a fluorescence microscope (485 nm excitation/520 nm emission). The tube formed was quantified using AngioQuant v1.33 (The MathWorks).

[11] = tested on: acetylation of p53 (K382), α-tubulin and histone-H3; experiment: Acetylation status of sirtuin substrates in HUVEC (Western blot); assay type: cell-based, human; conditions: HUVEC; for acetylation status of tubulin or histone-H3: 6 h or 20 h
Protocol: as §2

[12] = hMetAP2 Co^2+ IC50, Table 2, in the presence of Co^2+
[13] = read-out: hMetAP1 Co^2+ IC50, Table 2, in the presence of Co^2+
[14] = Homo sapiens, HUVEC, read-out: Selectivity HUVEC IC50
[15] = Table 2, in the presence of Co^2+, read-out: hMetAP2 Co^2+ IC50
[16] = Table 2, in the presence of Co^2+, read-out: hMetAP1 Co^2+ IC50
[17] = Table 2, in the presence of Mn^2+, read-out: hMetAP1 Mn^2+ IC50
[18] = Table 3, in the presence of Co^2+, read-out: hMetAP2 Co^2+ IC50
[19] = Table 3, in the presence of Mn^2+, read-out: hMetAP2 Mn^2+ IC50
[20] = Table 3, in the presence of Co^2+, read-out: hMetAP1 Co^2+ IC50
[21] = Table 3, in the presence of Mn^2+, read-out: hMetAP1 Mn^2+ IC50
[22] = Table 3, read-out: Selectivity HUVEC IC50
[23] = Homo sapiens, HUVEC, Table 4, read-out: HUVEC IC50
[24] = 72 h, valproic acid 0.1 mM, TNP-470 20 nM

T1 sequence (P50579 whole entry): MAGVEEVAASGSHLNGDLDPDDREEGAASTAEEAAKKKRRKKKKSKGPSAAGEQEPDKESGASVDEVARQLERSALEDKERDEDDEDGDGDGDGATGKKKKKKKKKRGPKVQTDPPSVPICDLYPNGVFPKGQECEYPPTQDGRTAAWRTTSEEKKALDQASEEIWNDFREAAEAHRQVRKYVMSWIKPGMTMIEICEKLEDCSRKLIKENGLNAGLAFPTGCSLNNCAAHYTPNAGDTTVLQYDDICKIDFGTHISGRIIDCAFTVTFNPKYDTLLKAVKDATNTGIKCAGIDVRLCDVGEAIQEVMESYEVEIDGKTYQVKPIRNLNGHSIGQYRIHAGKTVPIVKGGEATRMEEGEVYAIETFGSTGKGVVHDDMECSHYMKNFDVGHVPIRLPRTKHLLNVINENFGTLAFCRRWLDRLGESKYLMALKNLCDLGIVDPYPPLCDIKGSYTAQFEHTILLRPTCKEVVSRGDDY

For Oc1cccc2cccnc12 [Entry 1a], the IC50 [1, 12] was over 50 µM, the IC50 ([1]; hMetAP2 Mn^2+ IC50, Table 2, in the presence of Mn^2+) was 2 µM and the IC50 [2, 13] was over 50 µM. For the same compound, the IC50 [3, 14] was 6.2 µM and the IC50 ([4]; Homo sapiens, HFF, Table 2) was 6.6 µM.

Work on O=S(=O)(O)c1ccc(O)c2ncccc12 [Entry 1d] yielded an IC50 [1, 12] of over 50 µM, an IC50 [3, 14] of over 50 µM and an IC50 ([4]; Homo sapiens, HFF, Table 2) of over 50 µM.

For OCCN(CCO)Cc1cc(Cl)c2cccnc2c1O [Entry 2a, 5-Chloro-7-(N,N-bis(2-hydroxyethyl)aminomethyl)-8-hydroxy-quinoline], the IC50 [1, 15] was over 50 µM, the IC50 [2, 16] was over 50 µM and the IC50 [2, 17] was over 50 µM.

In the case of Oc1c(C(c2ccccc2)N2CCOCC2)cc(Cl)c2cccnc12 (stereo not shown) [Entry 2f, 5-Chloro-7-(1-phenyl-1-(N-morpholino)-methyl)-8-hydroxy-quinoline], the melting point is reported as 89 °C.

Oc1c(C(Nc2nccs2)c2ccco2)cc(Cl)c2cccnc12 (stereo not shown) [Entry 2g, 5-Chloro-7-(1-(2-furyl)-1-(2-thiazolylamino)-methyl)-8-hydroxy-quinoline] showed an IC50 [1, 15] of over 50 µM, an IC50 ([1]; Table 2, in the presence of Mn^2+, read-out: hMetAP2 Mn^2+ IC50) of 2.8 µM and an IC50 [2, 16] of over 50 µM. The IC50 [2, 17] was over 50 µM, the IC50 ([3]; Homo sapiens, HUVEC, Table 2, read-out: Selectivity HUVEC IC50) was 2.5 µM and the IC50 ([4]; Homo sapiens, HFF, Table 2) was 13.5 µM. The melting point was 126 °C.

C=CCOc1ccc(Cl)c2cccnc12 [Entry 3a, 8-Allyloxy-5-chloroquinoline] showed an IC50 ([1]; read-out: hMetAP2 Co^2+ IC50, Table 2, in the presence of Co^2+) of over 50 µM and an IC50 [2, 13] of over 50 µM.

In the case of O=C(Nc1cc(Cl)cc(Cl)c1)Oc1c(Cl)cc(Cl)c2cccnc12 [Entry 4b, 5,7-Dichloro-8-quinolyl-N-(3,5-dichlorophenyl)-carbamate], the IC50 [1, 18] is reported as over 50 µM, the IC50 [1, 19] is reported as 0.9 µM and the IC50 [2, 20] is reported as over 50 µM. The IC50 [2, 21] was over 50 µM, the IC50 [3, 22] was 0.11 µM and the IC50 ([4]; Table 3) was 3 µM.

Compound O=C(Nc1cc(Cl)cc(Cl)c1)Oc1ccc(Cl)c2cccnc12 [Entry 4c, 5-Chloro-8-quinolyl-N-(3,5-dichlorophenyl)-carbamate] has an IC50 [1, 18] of 2.2 µM, an IC50 [1, 19] of 0.07 µM and an IC50 [2, 20] of over 50 µM. For the same compound, the IC50 [2, 21] was 12.6 µM, the IC50 [3, 22] was 1.2 µM and the IC50 ([4]; Table 3) was 8 µM.

With O=C(Nc1ccccc1)Oc1c(Cl)cc(Cl)c2cccnc12 [Entry 4d, 5,7-Dichloro-8-quinolyl-N-phenylcarbamate] the IC50 [1, 18] was over 50 µM, the IC50 [1, 19] was 1.6 µM and the IC50 [2, 20] was over 50 µM. For the same compound, the IC50 [2, 21] was over 50 µM and the IC50 ([4]; Table 3) was 15.3 µM.

For O=C(Nc1ccccc1)Oc1ccc(Cl)c2cccnc12 [Entry 4e, 5-Chloro-8-quinolyl-N-phenylcarbamate], the IC50 [1, 18] was 1.9 µM, the IC50 [1, 19] was 0.03 µM and the IC50 [2, 20] was over 50 µM. The IC50 [2, 21] was 11.9 µM, the IC50 [3, 22] was 2.1 µM and the IC50 ([4]; Table 3) was 8.8 µM.

With O=C(Nc1ccc(F)cc1)Oc1c(Cl)cc(Cl)c2cccnc12 [Entry 4f, 5,7-Dichloro-8-quinolyl-N-(4-fluorophenyl)-carbamate] the IC50 [1, 18] was over 50 µM, the IC50 [1, 19] was 3.1 µM and the IC50 [2, 20] was over 50 µM. It also gave an IC50 [2, 21] of over 50 µM and an IC50 ([4]; Table 3) of 37 µM.

Compound O=C(Nc1cc(F)cc(F)c1)Oc1ccc(Cl)c2cccnc12 [Entry 4g, 5-Chloro-8-quinolyl-N-(3,5-difluorophenyl)-carbamate] has an IC50 [1, 18] of 45.7 µM, an IC50 [1, 19] of 1.8 µM and an IC50 [2, 20] of over 50 µM. The IC50 [2, 21] was over 50 µM and the IC50 ([4]; Table 3) was 16.1 µM.

In the case of O=C(NCCCl)Oc1ccc(Cl)c2cccnc12 [Entry 4h, 5-Chloro-8-quinolyl-N-(2-chloroethyl)-carbamate], the IC50 [3, 22] is reported as 2.3 µM and the IC50 ([4]; Table 3) is reported as 8.4 µM.

O=C(NCCCl)Oc1c(Cl)cc(Cl)c2cccnc12 [Entry 4i, 5,7-Dichloro-8-quinolyl-N-(2-chloroethyl)-carbamate] showed an IC50 [2, 20] of over 50 µM, an IC50 [2, 21] of over 50 µM and an IC50 [3, 22] of 2.4 µM. For the same compound, the IC50 ([4]; Table 3) was 11.1 µM.

Cc1ccc2c([N+](=O)[O-])cc([N+](=O)[O-])c(O)c2n1 [Entry 5b, 2-Methyl-5,7-dinitro-8-hydroxy-quinoline] gave an IC50 [3, 23] of 17.3 µM.

For CC(C)(C)OC(=O)Oc1ccc([N+](=O)[O-])c2cccnc12 [Entry 5c, 5-Nitro-8-tert-butoxycarbonyloxyquinoline], the IC50 [3, 23] was 0.29 µM.

For CCOC(=O)COc1ccc([N+](=O)[O-])c2cccnc12 [Entry 5d, Ethyl 1-(5-Nitro-quinolin-8-yloxy)-acetate], the IC50 ([3]; Table 4, read-out: HUVEC IC50) was 7.3 µM.

NC(=O)COc1ccc([N+](=O)[O-])c2cccnc12 [Entry 5e, 1-(5-Nitro-quinolin-8-yloxy)-acetamide] showed an IC50 ([3]; Table 4, read-out: HUVEC IC50) of 6.3 µM.

In the case of CO[C@@H]1[C@H](OC(=O)NC(=O)CCl)CC[C@]2(CO2)[C@H]1[C@@]1(C)O[C@@H]1CC=C(C)C [TNP-470], the “endothelial selectivity over other types of cancer cell lines” value [5] is reported as “around 1,000 fold”, the “growth of MetAP-1 deletion mutant (map1Δ)” value ([6]; map1Δ) is reported as “significantly inhibited” and the “growth of MetAP-2 deletion mutant” value ([6]; map2Δ) is reported as “did not affect the growth”. The “growth of wild-type yeast” value ([6]; wild type) was “did not inhibit the yeast growth”, the “processing of 14-3-3γ by hMetAP2” value [7] was “completely blocked” and the Rb hyperphosphorylation ([8]; 8% SDS-PAGE) was “inhibited its hyperphosphorylation”. For the same compound, the “total amount of Rb protein” value ([8]; 12% SDS-PAGE) was “increased the total amount of Rb protein”, the “premature senescence in HUVEC” value [9, 24] was “did not induce premature senescence” and the “premature senescence in HUVEC” value ([9]; 5 days, single compound or drug combination) was “did not”. The HUVEC tube formation [10] was “did not inhibit tube formation”.

With CC(/C=C/C(=O)NO)=C\[C@@H](C)C(=O)c1ccc(N(C)C)cc1 [TSA] the “acetylation status of tubulin or histone-H3” value [11] was “induced hyper-acetylation” and the p53 acetylation ([11]; early time point) was “increased p53 acetylation”.

For CC(NC(=O)c1ccccc1/N=C/c1c(O)ccc2ccccc12)c1ccccc1 (stereo not shown) [sirtinol], the “acetylation status of tubulin or histone-H3” value [11] was “induced hyper-acetylation”.

For CCCC(CCC)C(=O)O [valproic acid], the “premature senescence in HUVEC” value [9, 24] was “induced premature senescence” and the reversibility of senescence ([9]; 72 h treatment, then fresh media for an additional 48 h) was “reversed their senescence state”.
